Test results as given in US20260199323A1, “LIGAND COMPOUNDS FOR E3 UBIQUITIN LIGASE, PROTEIN DEGRADERS DEVELOPED ON BASIS OF LIGAND COMPOUNDS, AND USES THEREOF” (GLUETACS THERAPEUTICS (SHANGHAI) CO., LTD., priority 2021, published 2026).
Values belong to the compound of their own block, whether it stands above or below them.

How the values were obtained:
Kasumi-1 = test: CCK-8 tumor cell proliferation, Kasumi-1; type: cell-based, Human; conditions: 72 h
Procedure, shortened: (§1)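 STR-authenticated, mycoplasma-negative cells were cultured at 37 °C with 5% CO2. One day after plating, they were treated with a 5-fold serial dilution of compound (10 points, highest 10 μM). CCK-8 was used to assess viability, giving IC50 values.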

Mino = test: CCK-8 tumor cell proliferation, Mino; type: cell-based, Human; conditions: Table 13, designed based on BCR-ABL inhibitors; 72 h
Procedure, shortened: as §1

K562 = test: CCK-8 tumor cell proliferation, K562; parameters: species or system Human; conditions: Table 13, designed based on BCR-ABL inhibitors; 72 h
Protocol: (§2) The tumor cells used herein were cultured in a cell culture medium listed in table 4 at 37° C. in an incubator with 5% CO2. Prior to experimentation, all cells used were correctly identified by STR profiling, and tested negative for mycoplasma through routine screenings.
(§3) IC50 values of the compounds of the present disclosure (including the compounds in Tables 1 and 3, and compounds of examples) were measured using the Meilun Cell Counting Kit-8 kit from Dalian Meilun Biotech Co., Ltd. Assay details are as follows: tumor cells were seeded in a 96-well plate at a density listed in Table 5. After 24 h, 100 μL of the inoculated cells were treated with 0.5 μL of the compounds of the present disclosure (including the compounds in Tables 1 and 3, and compounds of examples) at 10 different successively decreasing concentrations (starting at the highest concentration of 10 μM; 5-fold serial dilutions). After the cells were treated with the compounds of the present disclosure for a period of time, the cell viability detection reagent was added to the culture medium for cell viability assessment according to the instructions provided with the CCK-8 kit. […] The growth inhibition of the compounds of the present disclosure on cells was plotted by Prism Graphpad software, and the IC50 values of the compounds of the present disclosure were calculated therefrom.

Ramos = test: CCK-8 tumor cell proliferation, Ramos; conditions: Homo sapiens, Table 9, designed based on SHP2 inhibitors, 72 h, read-out: IC50 for inhibiting the proliferation of tumor cells, Ramos
Protocol: as §2, §3

MM.1S = test: CCK-8 tumor cell proliferation, MM.1S; type: cell-based; conditions: Table 6, designed based on STAT3 inhibitors; 72 h
Procedure, shortened: as §1

SNU-182 = test: CCK-8 tumor cell proliferation, SNU-182; parameters: species or system Human; conditions: Table 6, designed based on STAT3 inhibitors; 96 h
Protocol: as §2, §3

T47D = test: CCK-8 tumor cell proliferation, T47D; type: cell-based, Human; conditions: Table 6, designed based on STAT3 inhibitors; 96 h
Protocol: as §2, §3

CCRF-CEM = test: CCK-8 tumor cell proliferation, CCRF-CEM; type: cell-based, Human; parameters: IC50 for inhibiting the proliferation of tumor cells, CCRF-CEM: scale not given here; conditions: 96 h
Procedure, shortened: as §1

CAL-62 = test: CCK-8 tumor cell proliferation, CAL-62; type: cell-based, Human; parameters: IC50 for inhibiting the proliferation of tumor cells, CAL-62: scale not given here; conditions: Table 13, designed based on BCR-ABL inhibitors; 72 h
Procedure, shortened: as §1

Daudi = test: CCK-8 tumor cell proliferation, Daudi; parameters: species or system Human; conditions: Table 13, designed based on BCR-ABL inhibitors; 96 h
Protocol: as §2, §3

TMD8 = test: CCK-8 tumor cell proliferation, TMD8; parameters: species or system Human; conditions: Table 13, designed based on BCR-ABL inhibitors; 72 h
Protocol: as §2, §3

[1] = Table 13, designed based on BCR-ABL inhibitors
[2] = Table 6, designed based on STAT3 inhibitors

IC50 for inhibiting the proliferation of tumor cells, Kasumi-1 (Kasumi-1; [1]): A+ | IC50 for inhibiting the proliferation of tumor cells, Mino (Mino): A+ | IC50 for inhibiting the proliferation of tumor cells, K562 (K562): A+
SMILES: Cc1nc(Nc2ncc(C(=O)Nc3c(C)cccc3Cl)s2)cc(N2CCN(Cc3ccc4c(c3)CN(C3CCC(=O)NC3=O)C4=O)CC2)n1 (centres unmarked) [GT-03215, N-(2-chloro-6-methylphenyl)-2-((6-(4-((2-(2,6-dioxopiperidin-3-yl)-1-oxoisoindolin-5-yl)methyl)piperazin-1-yl)-2-methylpyrimidin-4-yl)amino)thiazole-5-carboxamide]

IC50 (Ramos): > 10 µM
SMILES: CC1(N)CCN(c2cnc(-c3cccc(Cl)c3Cl)c(N)n2)CC1 [GT-03334]

IC50 (Ramos): > 10 µM
SMILES: C[C@@H]1OCC2(CCN(c3cnc(Sc4ccnc(N)c4Cl)c(N)n3)CC2)[C@@H]1N [GT-03335]

IC50 (Ramos): > 10 µM
SMILES: CC1(N)CCN(c2cnc3c(-c4cccc(Cl)c4Cl)n[nH]c3n2)CC1 [GT-03336]

IC50 for inhibiting the proliferation of tumor cells, Kasumi-1 (Kasumi-1; [2]): A+ | IC50 for inhibiting the proliferation of tumor cells, MM.1S (MM.1S): A+ | IC50 for inhibiting the proliferation of tumor cells, SNU-182 (SNU-182): A+ | IC50 for inhibiting the proliferation of tumor cells, T47D (T47D): A+ | IC50 for inhibiting the proliferation of tumor cells, CCRF-CEM (CCRF-CEM; [2]): A+
SMILES: O=C1CCC(N2Cc3cc(CNC(=O)c4cc5c(o4)C(=O)c4ccccc4C5=O)ccc3C2=O)C(=O)N1 (centres unmarked) [GT-03383, N-((2-(2,6-dioxopiperidin-3-yl)-1-oxoisoindolin-5-yl)methyl)-4,9-dioxo-4,9-dihydronaphtho[2,3-b]furan-2-carboxamide]

IC50 for inhibiting the proliferation of tumor cells, CAL-62 (CAL-62): A+ | IC50 for inhibiting the proliferation of tumor cells, Kasumi-1 (Kasumi-1; [1]): A+ | IC50 for inhibiting the proliferation of tumor cells, Mino (Mino): A+ | IC50 for inhibiting the proliferation of tumor cells, K562 (K562): A+ | IC50 for inhibiting the proliferation of tumor cells, Daudi (Daudi): A+ | IC50 for inhibiting the proliferation of tumor cells, CCRF-CEM (CCRF-CEM; [1]): A+
SMILES: Cc1ccc(C(=O)Nc2ccc(CN3CCN(Cc4ccc5c(c4)CN(C4CCC(=O)NC4=O)C5=O)CC3)c(C(F)(F)F)c2)cc1C#Cc1cnc2cccnn12 (centres unmarked) [GT-03804, N-(4-((4-((2-(2,6-dioxopiperidin-3-yl)-1-oxoisoindolin-5-yl)methyl)piperazin-1-yl)methyl)-3-(trifluoromethyl)phenyl)-3-(imidazo[1,2-b]pyridazin-3-ylethynyl)-4-methylbenzamide]

IC50 for inhibiting the proliferation of tumor cells, K562 (K562): A+ | IC50 for inhibiting the proliferation of tumor cells, CCRF-CEM (CCRF-CEM; [1]): A+
SMILES: Cc1ccc(C(=O)Nc2ccc(N3CCN(Cc4ccc5c(c4)CN(C4CCC(=O)NC4=O)C5=O)CC3)c(C(F)(F)F)c2)cc1C#Cc1cnc2cccnn12 (centres unmarked) [GT-03805, N-(4-(4-((2-(2,6-dioxopiperidin-3-yl)-1-oxoisoindolin-5-yl)methyl)piperazin-1-yl)-3-(trifluoromethyl)phenyl)-3-(imidazo[1,2-b]pyridazin-3-ylethynyl)-4-methylbenzamide]

IC50 for inhibiting the proliferation of tumor cells, TMD8 (TMD8): A+
SMILES: Cc1ccc(NC(=O)c2ccc(CN(C)Cc3ccc4c(c3)CN(C3CCC(=O)NC3=O)C4=O)cc2)cc1Nc1nccc(-c2cccnc2)n1 (centres unmarked) [GT-03990, 4-((((2-(2,6-dioxopiperidin-3-yl)-1-oxoisoindolin-5-yl)methyl)(methyl)amino)methyl)-N-(4-methyl-3-((4-(pyridin-3-yl)pyrimidin-2-yl)amino)phenyl)benzamide]
